Assay results published in US4771057A, “Reduced pyridyl derivatives with cardiovascular regulating properties” (University of Alberta, priority 1986, dated 1988).

What was measured:
calcium channel = settings: literature comparison for D-30; cited from earlier work
[1] = tested on: guinea pig ileal longitudinal smooth muscle; experiment: Calcium channel agonist testing: contractile response of guinea pig ileal longitudinal smooth muscle, compound given in place of CD; assay type: cell-based; settings: for EC50: Cavia porcellus, given in the place of CD, no calcium antagonist added, read-out: effective dose producing 50% of the maximum contractile response
Method: Calcium channel antagonist activity was determined as the concentration required to produce 50% inhibition of the muscarinic receptor-mediated Ca^2+ -dependent contraction of guinea pig ileal longitudinal smooth muscle assay (C. Triggle, V. Swamy and D. Triggle, Can. J. Physiol. Pharmacol., 1979, 57, 804). Male albino guinea pigs (body weight 300-450 g) were sacrificed by decapitation. The intestine was removed above the ileo-caecal junction. Longitudinal smooth muscle segments of 2 cm length were mounted under a resting tension of 300-400 mg. The segments were maintained at 37° C. in a 10 mL jacketed organ bath containing oxygenated (100% O2) physiological saline solution of the following composition (mM): NaCl: 137; CaCl2 : 2.6; KCl: 5.9; MgCl2 : 1.2; glucose: 11.9; buffered by Hepes-NaOH to pH 7.4. The muscles were equilibrated for 1 h with a solution change every 15 min. Two successive control contractions were elicited at 15 min intervals with 5×10^-7 M cis-2-methyl- 4-dimethylaminomethyl-1,3-dioxolane methiodide (CD). The isometric contractions were recorded with a force displacement transducer (FT 03C) on a GRASS physiograph. The means of the two contractile responses was taken as the 100% value for the tonic (slow) component of the response. The muscle was washed with Hepes saline solution and was allowed to re-equilibrate. The calcium antagonist (test compound) was added ten min before the dose-response for CD was determined. The drug-induced inhibition of contraction was expressed as percent of control. The ID50 values were graphically determined from the concentration-response curves. The test results are shown in Table 7, the compounds testing being compared to Nifedipine (TM).
(§1) A modified protocol, used for testing calcium channel antagonists (vide supra), was used to determine the concentration at which D-30 produced 50% of the maximum contractile response. D-30 was administered in the place of CD and the dose-response curve was determined. A calcium antagonist was not added during the experiment. […] Similarly, the effective dose of the isomeric D-31 producing 50% of the maximum contractile response was 6.6×10^-5 M. Both D-30 and D-31 increased the guinea pig right atria heart rate by 30%.

guinea pig right atria = experiment: Guinea pig right atria heart rate; assay type: cell-based
Method: as §1

SMILES | calcium channel agonist activity of reference compounds (calcium channel) | EC50 [1] [µM] | calcium channel agonist activity ([1]; conclusion from contractile response) | muscle contraction ([1]; tested using the calcium channel antagonist testing procedure) | increase of guinea pig right atria heart rate (guinea pig right atria) [%]
COC(=O)C1=C(C)NC(C)=C([N+](=O)[O-])C1c1ccccc1C(F)(F)F (centres unmarked) [Bay K 8644] | calcium channel agonist which promotes calcium entry into cells | – | – | – | –
CCOC(=O)C1=C(C)NC2=C(C(=O)OC2)C1c1ccccc1OC(F)F (centres unmarked) [CGP 28392] | calcium channel agonist which promotes calcium entry into cells | – | – | – | –
COC(=O)C1=C(C)NC(C)=C([N+](=O)[O-])C1c1cccnc1 [Compound D-30, methyl 2,6-dimethyl-3-nitro-4-(3'-pyridyl)-1,4-dihydropyridine-5-carboxylate] | – | 94 | calcium channel agonist which promotes calcium entry into cells | caused muscle contraction | 30
COC(=O)C1=C(C)NC(C)=C([N+](=O)[O-])C1c1ccncc1 [Compound D-31, methyl 2,6-dimethyl-3-nitro-4-(4'-pyridyl)-1,4-dihydropyridine-5-carboxylate] | – | 66 | – | – | 30
